Reference: patent US9682148B2, “Solid oral dosage form of testosterone derivative” (Solural Pharma APS, priority 2012, dated 2017)

Key:
[1] = cited from earlier work
[2] = Estimate of maximal amount of lymphatic absorbed TU; settings: estimated: 25% of solubility x 120 mg/g x 3.5 g triglyceride/10 h, formulation of 600 mg fat
Source text: The maximal amount of lymphatic absorbed TU can be estimated from the solubility of Testosterone Undecanoate in triglyceride and the transported triglyceride (Int. J. Pharm., vol. 34, 175-178, 1986).

In the case of `CCCCCCCCCCC(=O)O[C@H]1CC[C@H]2[C@@H]3CCC4=CC(=O)CC[C@]4(C)[C@H]3CC[C@]12C` [Testosterone Undecanoate], the solubility in triglyceride [1] is given as 120 mg/g and the “maximal amount of lymphatic absorbed TU” value [2] is given as ~100 mg.
